According to patent publication EP0499581B1, “Stabilized polymer composition” (Ciba Specialty Chemicals Holding Inc., priority 1991, dated 1992):

Assays:
Assay type in all cases: physicochemical
[1] = Yellowing (ASTM D 1925) after UV exposure in Weather-O-meter WRC 600, ABS/SAN/polycarbonate blend (Example 1); details: Weather-O-meter WRC 600, 2 mm plates
Method: Dieses Copolymer wird in Pulverform mit derselben Menge von Styrolacrylnitril-copolymer (Suspension SAN, Ube Cycon) und der doppelten Menge von pulverförmigem Polycarbonat (PC 135, General Electric), mit gegebenenfalls weiteren Additiven, wie z.B. einem UV-Absorber, in einem Rhönrad vermischt. Die Mischung wird in einem Zweischnecken-Extruder (Temperatur-Zyklus: 165°C, 250°C, 275°C, 275°C, 270°C; Umdrehungen/Minute: 45) hergestellt.
(§1) Die erhaltenen Mischungen werden in einer Heizpresse bei 200°C zu 2 mm starken Platten gepresst. Aus den Platten werden Prüfkörper von 40 x 40 x 2 mm ausgeschnitten. Diese werden in einem Weather-O-meter® WRC 600 mit UV-Licht belichtet. In regelmässigen Abständen werden Proben entnommen und deren Vergilbung gemäss ASTM D 1925 gemessen.
Die mit der Belichtungszeit einhergehende Vergilbung, ausgedrückt in ΔYI (YI = Yellowness Index; ΔYI = Unterschied in YI-Wert zwischen unbelichteter und entsprechender belichteter Probe) und nach der angegebenen Methode ermittelt, ist in der Tabelle 1 wiedergegeben.

[2] = Yellowing (ASTM D 1925) after UV exposure in Weather-Ometer WRC 600, ABS/SAN/polycarbonate blend (Example 2); details: Weather-Ometer WRC 600, 2 mm plates
Method: (§2) Beispiel 2: Das ABS-Copolymer gemäss Beispiel 1 wird in Pulverform mit derselben Menge von Styrolacrylnitril-Copolymer (Suspension SAN, Kostil, Montedipe), mit gegebenenfalls weiteren Additiven, wie z.B. einem UV-Absorber (Tinuvin® 234, Ciba-Geigy AG) und einem Phosphit (Irgafos® 168, Ciba-Geigy AG), in einem Rhönrad vermischt. Die Mischung wird in einem Zweischnecken-Extruder (Temperatur-Zyklus : 210°C/ 210°C/ 215°C/ 220°C) verarbeitet und granuliert.
(§3) Das erhaltene ABS-Granulat wird mit derselben Menge von Polycarbonat-Granulat (PC Calibre®, Dow) vermischt. Das Polymerblend wird in einem Zweischnecken-Extruder (Temperatur Zyklus : 240°C/ 240°C/ 250°C) hergestellt.
as §1, with “Mischungen (Blends)” for “Mischungen”, “Diese Plättchen” for “Diese”, “Weather-Ometer®” for “Weather-O-meter®”, “Vergilbung (oder Yellowness Index)” for “Vergilbung”, “gemäss Methode” for “gemäss”
Die mit der Belichtungszeit einhergehende Vergilbung is in der Tabelle 2 wiedergegeben.

[3] = Impact bending strength (ASTM D 4508-85) after UV exposure in Xenotest 450, ABS/SAN/polycarbonate blend (Example 2); set-up: key to Schlagbiegefestigkeit in kJ/m^2 nach 200 Stunden in Xenotest 450: KB = Kein Bruch; details: energy required to break
Method: as §2, §3
Weitere Prüfkörper von 12,7 x 60,0 x 2,0 mm werden in einem Xenotest 450 mit UV-Licht belichtet. In regelmässigen Abständern werden Proben entnommen und deren Schlagbiegefestigkeit gemäss Methode ASTM D 4508-85 gemessen. Dabei erfolgt der Pendelschlag auf die belichtete Seite der Probe.
In Tabelle 3 ist die für den Bruch der Probe erforderliche Energie angegeben. Je höher dieser Wert ist, desto höher ist die Schlagbiegefestigkeit der Probe. Bei ungeschädigten Proben erfolgt kein Bruch.

[4] = Yellowing (ASTM D 1925) after oven ageing, ABS/PBT blend (Example 3)
Method: Beispiel 3: Das ABS-Copolymer Granulat gemäss Beispiel 2 wird mit derselben Menge Polybutylenterephtahlat, (PBT CRASTIN® S 600, Ciba-Geigy) vermischt. Das Polymerblend wird in einem Zweischnecken-Extruder (Temperatur-Zyklus: 210°C/230°C/ 235°C/ 240°C) hergestellt. Proben von 12,7 x 60,0 x 2,0 mm werden in einer Arburg-Spritzgussanlage gespritzt bei einer maximalen Verarbeitungstemperatur von 260°C. Diese Plättchen werden in einem Ofen bei 200°C und bei 160°C gealtert. In regelmässigen Abständen werden die Proben entnommen und deren Vergilbung gemäss ASTM D 1925 gemessen.

## CC(C)(c1ccccc1)c1cc(-n2nc3ccccc3n2)c(O)c(C(C)(C)c2ccccc2)c1 [0,3 % UV- Absorber *]
[1]; 250 h UV
  Δ YI nach Belichtungszeit von 250 h: -7,0
[1]; 500 h UV
  Δ YI nach Belichtungszeit von 500 h: -3,0
[1]; 1000 h UV
  Δ YI nach Belichtungszeit von 1000 h: 7,5
[1]; 1250 h UV
  Δ YI nach Belichtungszeit von 1250 h: 12,1
[1]; 1500 h UV
  Δ YI nach Belichtungszeit von 1500 h: 14,9

## CC(C)(c1ccccc1)c1cc(-n2nc3ccccc3n2)c(O)c(C(C)(C)c2ccccc2)c1 [0,50 % TINUVIN® 234]
[2]; 500 h UV
  Δ YI nach Belichtungszeit von 500 h: -7
[2]; 1000 h UV
  Δ YI nach Belichtungszeit von 1000 h: 1,1
[2]; 2000 h UV
  Δ (YI) nach Belichtungszeit von 2000 h: 16,1
[2]; 3000 h UV
  Δ (YI) nach Belichtungszeit von 3000 h: 23,4
[2]; 4000 h UV
  Δ (YI) nach Belichtungszeit von 4000 h: 23,9
[3]; 200 h Xenotest 450
  Schlagbiegefestigkeit in kJ/m^2 nach 200 Stunden in Xenotest 450: KB
[3]; 300 h Xenotest 450
  Schlagbiegefestigkeit in kJ/m^2 nach 300 Stunden in Xenotest 450: 15±2 kJ/m^2
[3]; 500 h Xenotest 450
  Schlagbiegefestigkeit in kJ/m^2 nach 500 Stunden in Xenotest 450: 13±1 kJ/m^2
[3]; 1000 h Xenotest 450
  Schlagbiegefestigkeit in kJ/m^2 nach 1000 Stunden in Xenotest 450: 11±1 kJ/m^2
[3]; 1500 h Xenotest 450
  Schlagbiegefestigkeit in kJ/m^2 nach 1500 Stunden in Xenotest 450: 11±1 kJ/m^2
[4]; oven 160°C, 60 min
  Δ YI nach Ofenalterung bei 160°C nach 60 min: 4,7
[4]; oven 160°C, 90 min
  Δ YI nach Ofenalterung bei 160°C nach 90 min: 10,8
[4]; oven 160°C, 120 min
  Δ YI nach Ofenalterung bei 160°C nach 120 min: 11,6
[4]; oven 160°C, 160 min
  Δ YI nach Ofenalterung bei 160°C nach 160 min: 20,4
[4]; oven 160°C, 840 min
  Δ YI nach Ofenalterung bei 160°C nach 840 min: 56,3
[4]; oven 200°C, 10 min
  Δ YI nach Ofenalterung bei 200°C nach 10 min: 6,0
[4]; oven 200°C, 20 min
  Δ YI nach Ofenalterung bei 200°C nach 20 min: 16,4
[4]; oven 200°C, 40 min
  Δ YI nach Ofenalterung bei 200°C nach 40 min: 33,1
[4]; oven 200°C, 60 min
  Δ YI nach Ofenalterung bei 200°C nach 60 min: 43,9
[4]; oven 200°C, 90 min
  Δ YI nach Ofenalterung bei 200°C nach 90 min: 55,3
